In patent US20240254145A1, “SALT FORM AND CRYSTAL FORM OF HETEROCYCLIC SUBSTITUTED PURINONE DERIVATIVE” (ZAI LAB (SHANGHAI) CO., LTD., priority 2021, published 2024):
pIC50: −log10 of the molar value.

Tests used:
[1] = Pharmacokinetic evaluation in rat plasma after oral administration; assay type: in vivo; details: 30 mg/kg, SD male rats
Experimental: The test compound was mixed with 0.5% CMC-Na+0.2% (V:V) Tween80 aqueous solution, vortexed, and sonicated to prepare a 3 mg/mL homogeneous suspension. SD male rats were selected, and orally administered with the candidate compound solution at a dose of 30 mg/kg. Whole blood was collected for a certain period of time and prepared into plasma. The drug concentration was analyzed by the LC-MS/MS method, and the pharmacokinetic parameters were calculated using Phoenix WinNonlin software (Pharsight, USA).
Cmax: highest plasma drug concentration after administration; Tmax: time required to reach the peak concentration after administration; T1/2: time required for the plasma drug concentration to decrease by half; Tlast: time at the last detection point; AUC0-last: area under the drug-time curve, which refers to the area enclosed by the plasma drug concentration curve and the time axis.

[2] = biological target: T1, Human DNA-PK (Homo sapiens, UniProt P78527); experiment: DNA-dependent protein kinase (DNA-PK) inhibitory activity screening assay (Eurofins, HTRF); assay type: biochemical; details: ATP: 10 μM, 50 nM GST-cMyc-p53
T1 construct: purchased Eurofins (Eurofins Pharma Discovery Service; outsourced assay)
Experimental: This experiment was tested in the Eurofins
Human DNA-PK; Mg/ATP; GST-cMyc-p53; EDTA; Ser15 antibody; ATP: 10 μM.
DNA-PK(h) was incubated in assay buffer containing 50 nM GST-cMyc-p53 and Mg/ATP (according to the required concentration). The reaction was initiated by adding the Mg/ATP mixture. After incubation at room temperature for 30 minutes, the reaction was stopped by adding a stop solution containing EDTA. Finally, detection buffer (containing labeled anti-GST monoclonal antibody and europium-labeled anti-phospho Ser15 antibody against phosphorylated p53) was added. The plate was then read in time-resolved fluorescence mode, and the homogeneous time-resolved fluorescence (HTRF) signal was determined according to the formula HTRF=10000×(Em665 nm/Em620 nm).

[3] = system: human lung cancer NCI-H1703 xenograft tumor; experiment: In vivo pharmacodynamic study, NCI-H1703 subcutaneous xenograft tumor model; set-up: species or system female BALB/c nude mice; details: for Tumor volume (Day 0): Day 0, Mean ± SEM; for Tumor volume (Day 0) / Tumor volume (Day 21) / Tumor weight (Day 21): n = 9; for RTV (Day 21) / T/C (%) (Day 21) / T/Cweight (%) / TGI (%) (Day 21): Day 21; for Tumor volume (Day 21) / Tumor weight (Day 21): Day 21, Mean ± SEM
Experimental: Experimental purpose: To study the in vivo pharmacodynamics of the test compound in the BALB/c nude mouse model with subcutaneous xenograft tumor of human […] NCI-H1703 cells.
Experimental animals: Experimental animals: female BALB/c nude mice, 6 to 8 weeks of age, weighing 18 to 22 grams; supplier: Shanghai Sippr-BK Lab.Animal Co.Ltd.
Human non-small cell lung cancer NCI-H1703 cells were cultured in vitro in RPMI1640 medium with 10% fetal bovine serum, 100 U/mL penicillin, and 100 μg/mL streptomycin, and cultured at 37° C. in a 5% CO2 incubator. Conventional digestion with trypsin-EDTA was performed twice a week for passaging. When the cell saturation was 80% to 90% and the number of cells reached the requirement, and the cells were collected, counted, and seeded.
0.2 mL (5×10^6) NCI-H1703 cells (added with Matrigel, volume ratio of 1:1) were subcutaneously inoculated on the right back of each mouse, and the administration in groups began when the average tumor volume reached about 130 mm^3.
The compound of formula (I) was prepared into 3 mg/mL, 6 mg/mL, and 9 mg/mL suspension solutions with 98.5% water+0.5% HPMC+1% Tween 80.
Tumor diameters were measured with a vernier caliper twice a week. The formula for calculating tumor volume is: V=0.5a×b^2, wherein a and b represent the long and short diameters of the tumor, respectively. The relative tumor volume (RTV) was calculated based on the results of tumor measurement. The calculation formula is RTV=Vt/V0, wherein V0 is the tumor volume measured at the time of group administration (i.e., day 0), and Vt is the tumor volume at one measurement. Data of the same day was taken for TRTV and CRTV.
The tumor inhibitory effect of the compound was evaluated by TGI (%, reflecting the tumor growth inhibition rate) or relative tumor proliferation rate T/C (%):
T/C (%)=TRTV/CRTV×100%, TRTV represents the average RTV of the treatment group, and CRTV represents the average RTV of the negative control group.
TGI (%)=[1−(average tumor volume at the end of administration in a certain treatment group−average tumor volume at the beginning of administration in this treatment group)/(average tumor volume at the end of treatment in the vehicle control group−average tumor volume at the beginning of treatment in the vehicle control group)]×100%.
After the experiment, the tumor weight (TW) was detected and T/Cweight (%) was calculated. The calculation formula is: T/Cweight (%)=TWtreatment/TWvehicle×100%. TWtreatment and TWvehicle represent the tumor weights of the administration group and vehicle control group, respectively.
Statistical analysis was performed using SPSS software based on RTV data at the end of the experiment. […] T-test was used to analyze the comparison between two groups, and one-way ANOVA was used to analyze the comparisons between three or more groups. If the variance was homogeneous (F value had no significant difference), Tukey's method is used for analysis; if the variance was not homogeneous (F value had significant difference), and the Games-Howell method was used for testing. p<0.05 was considered a significant difference.

[4] = Solid-state stability test of crystal form B (XRPD and HPLC purity); assay type: physicochemical
Experimental: Based on the “Guideline for Stability Testing of Pharmaceutical Ingredients and Formulations” (Chinese Pharmacopoeia 2020 Edition, General Rule 9001), in order to evaluate the solid-state stability of the crystal form B of the compound of formula (II-1), the solid-state stability of the crystal form B was investigated in terms of the influencing factors (high temperature, high humidity, and light) and the conditions of 60° C./75% RH and 40° C./75% RH. The crystal form B was placed at high temperature (60° C., open) and high humidity (25° C./92.5° RH, open) for 10 days respectively, and then placed open under visible and UV light (samples of the shaded control group were placed at the same time and wrapped in tin foil) according to the ICH conditions (total illuminance up to 1,200,000 Lux hrs in visible and 200 W hrs/m^2 in UV), for 1, 2, and 3 months at 60° C./75% RH (open), and for 1, 2, and 3 months at 40° C./75% RH (open).
About 10 mg of this crystal form was accurately weighed and placed in a dry and clean glass vial, spread into a thin layer, and left open under the test conditions of the influence factors and the accelerated conditions. Samples placed under light conditions (visible light 1200000 Lux hrs, UV 200 W hrs/m^2) were in a clear glass vial with full exposure, and samples for XRPD test were placed separately.
After the sample was taken out at the time point, it was covered, sealed with a sealing film, and stored in a −20° C. refrigerator. When preparing the sample, the sample was taken out of the refrigerator and warmed to room temperature, and dissolved with 25 mL of diluent (acetonitrile/water, 1:1, v/v) to obtain a solution with a concentration of approximately 0.5 mg/mL. The solution was analyzed using the liquid chromatography, and the results of the test were compared with the initial test results on day 0.
Preparation of standard solution on day 0: About 12.5 mg of this crystal form was weighed and placed in a 25 mL volumetric flask, dissolved with […], and diluted to the mark.
At the same time, HPLC tests were performed on all stability samples.

[5] = Hygroscopicity study by dynamic vapor sorption (DVS); assay type: physicochemical; details: 25° C. and 80% RH
Experimental: Instrument model: SMS DVS intrinsic dynamic moisture sorption analyzer
Test conditions: a sample (about 10 mg) is taken and placed in the DVS sample tray for testing.
The detailed DVS parameters are as follows:
Equilibrium: dm/dt=0.01%/min
RH (%) test increment: 5% RH
RH (%) test increment range: 0% to 95% to 0%
The evaluation and classifications of hygroscopicity are shown as follows:
Sufficient moisture is absorbed to produce a fluid: Deliquescence; ΔW %≥15%: High hygroscopicity; 15%>ΔW %≥2%: Hygroscopicity; 2%>ΔW %≥0.2%: Slight hygroscopicity; ΔW %<0.2%: No hygroscopicity or almost no hygroscopicity: ΔW % indicates hygroscopic weight gain of the sample at 25±1° C. and 80±2% RH.
The crystal form B of the compound of formula (II-1) (about 10 mg) was taken and placed in the DVS sample tray for testing.

Cc1cc2ncnn2cc1Nc1ncc2c(n1)n(N1CC3CCC(C1)O3)c(=O)n2C
AUC(0-t) ([1]; male, SD, rat, po): 87.4 µM·h
Cmax ([1]; male, SD, rat, po): 11.1 µM
pIC50 [2]: 9.22

Cc1cc2ncnn2cc1Nc1ncc2c(n1)n(N1CC3CCC(C1)O3)c(=O)n2C [Compound of formula (I)]
Tumor volume (Day 0) ([3]; 30 mg/kg): 131 ± 10 mm^3
RTV (Day 21) ([3]; 30 mg/kg): 7.57 ± 0.53
T/C (%) (Day 21) ([3]; 30 mg/kg): 79.3%
T/Cweight (%) ([3]; 30 mg/kg): 79.6%
TGI (%) (Day 21) ([3]; 30 mg/kg): 20.6%
Tumor volume (Day 21) ([3]; 30 mg/kg): 979 ± 86 mm^3
Tumor weight (Day 21) ([3]; 30 mg/kg): 1.031 ± 0.095 g
Tumor volume (Day 0) ([3]; 60 mg/kg): 131 ± 10 mm^3
RTV (Day 21) ([3]; 60 mg/kg): 3.31 ± 0.51
T/C (%) (Day 21) ([3]; 60 mg/kg): 34.7%
T/Cweight (%) ([3]; 60 mg/kg): 36.0%
TGI (%) (Day 21) ([3]; 60 mg/kg): 72.3%
Tumor volume (Day 21) ([3]; 60 mg/kg): 427 ± 64 mm^3
Tumor weight (Day 21) ([3]; 60 mg/kg): 0.467 ± 0.078 g
Tumor volume (Day 0) ([3]; 90 mg/kg): 130 ± 10 mm^3
RTV (Day 21) ([3]; 90 mg/kg): 2.64 ± 0.45
T/C (%) (Day 21) ([3]; 90 mg/kg): 27.7%
T/Cweight (%) ([3]; 90 mg/kg): 29.2%
TGI (%) (Day 21) ([3]; 90 mg/kg): 79.4%
Tumor volume (Day 21) ([3]; 90 mg/kg): 351 ± 64 mm^3
Tumor weight (Day 21) ([3]; 90 mg/kg): 0.379 ± 0.069 g

Cc1cc2ncnn2cc1Nc1ncc2c(n1)n(N1CC3CCC(C1)O3)c(=O)n2C [Crystal form A of the compound of formula (I)]
AUC0-last [1]: 83.483 µM·h
Cmax [1]: 14.6 µM
T1/2 [1]: 1.59 h
Tmax [1]: 0.67 h

Cc1cc2ncnn2cc1Nc1ncc2c(n1)n(N1CC3CCC(C1)O3)c(=O)n2C [Crystal form B of the compound of formula (II-1)]
T1/2 [1]: 4.07 h
Tmax [1]: 1.33 h
Purity (area %) ([4]; 0 days (initial)): 99.70 area %
Purity (area %) ([4]; 40° C., relative humidity of 75%, open, one month): 99.77 area %
Purity (area %) ([4]; 40° C., relative humidity of 75%, open, three months): 99.72 area %
Purity (area %) ([4]; 40° C., relative humidity of 75%, open, two months): 99.76 area %
Purity (area %) ([4]; 60° C., relative humidity of 75%, open, one month): 99.76 area %
Purity (area %) ([4]; 60° C., relative humidity of 75%, open, three months): 99.73 area %
Purity (area %) ([4]; 60° C., relative humidity of 75%, open, two months): 99.73 area %
Purity (area %) ([4]; High humidity (25° C., relative humidity of 92.5%, open), 10 days): 99.75 area %
Purity (area %) ([4]; High temperature (60° C., open), 10 days): 99.71 area %
Purity (area %) ([4]; Shaded control group, wrapped with tin foil, placed with visible light + UV): 99.75 area %
Purity (area %) ([4]; Visible light + UV (ICH conditions), 1,200,000 Lux·hrs, 200 W·hrs/m^2): 99.77 area %
Hygroscopicity classification [5]: slightly hygroscopic

Cc1cc2ncnn2cc1Nc1ncc2c(n1)n(N1CC3CCC(C1)O3)c(=O)n2C [Crystal form K of the compound of formula (VIII-1)]
AUC0-last [1]: 127.313 µM·h
Cmax [1]: 21.7 µM
T1/2 [1]: 2.42 h
Tlast [1]: 32.0 h
Tmax [1]: 1.50 h
